These results are taken from patent US20140378531A1, “INHIBITION OF PATTERN RECOGNITION RECEPTORS IN PANCREATIC CANCER TREATMENT USING TLR INHIBITORS” (NEW YORK UNIVERSITY, priority 2012, published 2014).

Holding throughout (format): in vivo
One assay deals with T1, TLR7 (Mus musculus, UniProt P58681).
T1 construct: from tissue; host or cells: whole animal: p48Cre;Kras^G12D mice and WT C57BL/6 mice; TLR7 on pancreatic leukocytes and epithelial cells
T1 sequence (P58681 27-1050): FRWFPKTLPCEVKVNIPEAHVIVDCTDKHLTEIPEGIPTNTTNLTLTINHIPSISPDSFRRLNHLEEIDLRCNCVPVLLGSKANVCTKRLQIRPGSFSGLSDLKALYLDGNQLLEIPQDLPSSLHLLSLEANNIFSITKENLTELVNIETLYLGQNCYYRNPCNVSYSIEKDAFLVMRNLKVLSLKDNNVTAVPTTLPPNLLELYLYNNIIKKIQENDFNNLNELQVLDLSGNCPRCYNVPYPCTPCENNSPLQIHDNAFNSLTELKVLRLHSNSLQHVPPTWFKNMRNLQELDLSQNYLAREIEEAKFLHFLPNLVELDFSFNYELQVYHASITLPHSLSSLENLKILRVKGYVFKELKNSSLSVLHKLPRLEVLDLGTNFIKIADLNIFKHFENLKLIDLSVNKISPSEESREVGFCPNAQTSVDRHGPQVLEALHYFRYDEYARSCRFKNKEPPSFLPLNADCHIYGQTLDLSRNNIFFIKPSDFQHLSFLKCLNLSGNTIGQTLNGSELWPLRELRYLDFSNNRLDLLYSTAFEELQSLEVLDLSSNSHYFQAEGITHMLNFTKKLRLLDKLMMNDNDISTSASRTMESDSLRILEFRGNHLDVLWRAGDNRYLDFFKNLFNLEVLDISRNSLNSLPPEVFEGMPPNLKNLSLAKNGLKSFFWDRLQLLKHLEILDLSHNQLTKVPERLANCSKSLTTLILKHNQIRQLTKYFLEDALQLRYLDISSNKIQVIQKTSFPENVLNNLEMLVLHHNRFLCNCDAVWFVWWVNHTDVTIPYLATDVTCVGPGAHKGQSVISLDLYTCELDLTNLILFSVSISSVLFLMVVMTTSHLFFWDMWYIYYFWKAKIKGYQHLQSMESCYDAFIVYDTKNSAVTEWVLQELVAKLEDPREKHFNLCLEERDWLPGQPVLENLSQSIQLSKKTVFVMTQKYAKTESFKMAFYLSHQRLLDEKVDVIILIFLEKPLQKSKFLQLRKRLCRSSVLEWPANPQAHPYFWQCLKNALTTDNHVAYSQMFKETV
Kind of assay: TLR7 blockade in caerulein-accelerated pancreatic carcinogenesis in p48Cre;Kras^G12D mice. Conditions: caerulein 50 μg/kg, two doses over 48 hours.

A short description of assay [1]: L-arginine induced pancreatic injury. The note with it: WT mice, L-arginine for one week.
In another assay the test system is MAP Kinase. In words: MAP Kinase or NF-κB blockade in caerulein + ssRNA40 pancreatitis. The note with it: mice, caerulein for 3 weeks + ssRNA40 + pathway blockade. As to the method: FIG. 15. TLR7 agonists exacerbate pancreatic inflammation via NF-κB and MAP Kinase dependent mechanisms. Mice were treated for 3 weeks with caerulein to induce pancreatitis.
In vivo TLR7 ligation was accomplished by thrice weekly i.p administration of selective TLR7 agonists (ssRNA40, E. coli RNA, or Adenine analogue, all 100 μg/kg; Invivogen, San Diego, Calif.). TLR7 blockade was accomplished using an oligonucleotide inhibitor of TLR7 (Guiducci et al., 2010) (IRS661, 100 μg, 3× per week; Dynavax, Berkeley, Calif.). Bone marrow chimeric animals were created by irradiating mice ([…]) followed by i.v. bone marrow transfer (1×10^7 cells) from non-irradiated donors as described (Bedrosian et al., 2011) Chimeric mice were employed in experiments 7 weeks later. In selected experiments, to accelerate carcinogenesis in p48Cre;Kras^G12D mice, two doses of caerulein (50 μg/kg) were administered over 48 hours as described (Carriere et al., 2009). MAP Kinase signaling blockade was accomplished using the MKK inhibitor PD98059 (2.5 mg/kg/day), the p38 inhibitor SB203580 (30 mg/kg/day), or the JNK inhibitor SP600125 (50 mg/kg/day; all Invivogen). Selective NF-κB signaling blockade was accomplished using either the NEMO binding domain inhibitor (1 mg/kg/day, EMD4Biosciences, Gibbstown, N.J.) or the IkB inhibitor Bay11-7082 (1.25 mg/kg/day; Invivogen). […]

Regarding caerulein, the “pancreatic histology after caerulein alone” value on TLR7 is on record as “developed invasive pancreatic adenocarcinoma within an extensive bed of fibro-inflammatory stroma”.

Consider `N=C(N)NCCC[C@H](N)C(=O)O` [L-arginine], for which the pancreatic injury result in assay [1] was “induced mild pancreatic edema and inflammation”.

For the compound `COc1cccc(-c2cc(=O)c3ccccc3o2)c1N` [PD98059], the “effects of TLR7 ligation on fibro-inflammatory pancreatic disease” value in the assay with MAP Kinase is on record as “protected from effects of TLR7 ligation”.
